Experimental data published in BigSolDB 2.1.

CC(C)C[C@H](CN)CC(=O)O
solubility (mole fraction)
Conditions	in acetonitrile	in ethanol	in ethyl acetate	in isobutanol	in isopropanol	in methanol	in n-butanol	in n-propanol
278.15 K	0.000572	0.00115	0.00164	0.00126	9.1e-05	0.00112	0.00093	0.00109
283.15 K	0.000624	0.00149	0.00195	0.00136	0.000125	0.00153	0.00152	0.00144
288.15 K	0.000695	0.00188	0.00237	0.00146	0.000163	0.00198	0.00213	0.00185
293.15 K	0.00076	0.00235	0.00271	0.00159	0.000214	0.00242	0.00282	0.00241
298.15 K	0.000821	0.00272	0.00331	0.00173	0.000253	0.00273	0.00354	0.00277
303.15 K	0.000885	0.00321	0.00374	0.00184	0.000281	0.0033	0.00416	0.0032
308.15 K	0.000931	0.00369	0.00429	0.00194	0.000314	0.00399	0.00487	0.00368
313.15 K	0.000988	0.00424	0.00488	0.002	0.000362	0.00465	0.00551	0.00412
318.15 K	0.00106	0.00501	0.00547	0.00209	0.000419	0.00542	0.00619	0.00466
323.15 K	0.00113	0.00575	0.00589	0.00219	0.000461	0.00602	0.00677	0.00501
328.15 K	0.00118	0.00634	0.00631	0.00226	0.000513	0.00671	0.00731	0.00542
333.15 K	0.00123	0.00711	0.00674	0.00234	0.000585	0.00753	0.00793	0.00603
